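Cultured in 96-well plates, cells were exposed to test compound for 48 hours across five concentrations. GI50 is the concentration that inhibits growth by half. TGI marks complete inhibition of growth.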
Experiments:
Assay in all cases: DTP human tumour cell line panel, 48 h
OVCAR-5 ovarian = system: OVCAR-5 ovarian
EKVX NSCLC = system: EKVX NSCLC
SF-295 CNS = system: SF-295 CNS
IGROV1 ovarian = system: IGROV1 ovarian
SF-268 CNS = system: SF-268 CNS
TK-10 renal = system: TK-10 renal
NCI-H522 lung = system: NCI-H522 lung
HOP-62 NSCLC = system: HOP-62 NSCLC
SK-MEL-2 melanoma = system: SK-MEL-2 melanoma
RPMI-8226 leukemia = system: RPMI-8226 leukemia
T-47D breast = system: T-47D breast
SNB-75 CNS = system: SNB-75 CNS
HCT-15 colon = system: HCT-15 colon
SK-MEL-28 melanoma = system: SK-MEL-28 melanoma
ACHN renal = system: ACHN renal
RXF 393 renal = system: RXF 393 renal

SMILES | TGI (OVCAR-5 ovarian) | TGI (EKVX NSCLC) | TGI (SF-295 CNS) | TGI (IGROV1 ovarian) | TGI (SF-268 CNS) | TGI (TK-10 renal) | TGI (NCI-H522 lung) | TGI (HOP-62 NSCLC) | TGI (SK-MEL-2 melanoma) | TGI (RPMI-8226 leukemia) | TGI (T-47D breast) | TGI (SNB-75 CNS) | TGI (HCT-15 colon) | TGI (SK-MEL-28 melanoma) | TGI (ACHN renal) | TGI (RXF 393 renal) | GI50 (RXF 393 renal)
COc1ccc(C2c3cc4c(cc3OC3(OC)COC(=O)C23)OCO4)c(OC)c1 (stereo not drawn) | > 100 µM | > 73.1 µM | 98.9 µM | > 100 µM | > 100 µM | > 95.6 µM | > 22.5 µM | > 100 µM | > 100 µM | > 45.5 µM | > 100 µM | 45.5 µM | > 100 µM | > 100 µM | > 100 µM | 35.4 µM | 
CCOC(=O)CCC(NC(=O)C(N)Cc1ccc(N(CCCl)CCCl)cc1)C(=O)OCC (stereo not drawn) | 7.19 µM | 6.53 µM | 11.7 µM | 3.93 µM | 4 µM | 4.41 µM | 0.853 µM | 7.9 µM | 6.05 µM | 17.7 µM | 3.84 µM | 2.79 µM | 1.93 µM | 2.18 µM | 0.692 µM | 0.739 µM | 0.17 µM
COc1ccc(C2=CC(C(C)=C(C(N)=O)C(N)=O)C=C(c3ccc(Br)cc3)C2)c(OC)c1 (stereo not drawn) | > 100 µM | > 100 µM | > 100 µM | > 100 µM | > 100 µM | > 100 µM | > 100 µM | > 100 µM | > 100 µM | > 100 µM | > 100 µM | > 100 µM | > 100 µM | > 100 µM | > 100 µM | > 100 µM | 
O=C1c2cc3c(cc2CC12Cc1ccc4c(c1C2=O)CCC4)CCCC3 (stereo not drawn) | > 100 µM | > 100 µM | > 100 µM | > 100 µM | > 100 µM | > 100 µM | > 100 µM | > 100 µM | > 100 µM | > 100 µM | > 100 µM | > 100 µM | > 100 µM | > 100 µM | > 100 µM | > 100 µM | 
COCOC1/C=C/CCCCC(=O)C(C)C#CC1 (stereo not drawn) | 26.2 µM | 23.1 µM | 31.3 µM | 18.1 µM | 35.1 µM | 21.6 µM | 3.37 µM | 33.9 µM | 21.2 µM | 5.96 µM | 6.39 µM | 26.1 µM | 7.11 µM | 25.4 µM | 19.9 µM | 9.19 µM | 
C[N+]12C=CC=C1C(N1CCCC1)c1scc(-c3ccc(Br)cc3)c12 (stereo not drawn) | > 100 µM | > 100 µM | > 100 µM | 20.8 µM | 37 µM | > 100 µM | 9.89 µM | 98.2 µM | 17.3 µM | 28.9 µM | 61.8 µM | > 22.3 µM | > 100 µM | > 60.5 µM | > 100 µM | 43.5 µM | 
CCCCCCc1cc2cc(-c3cn4ccsc4n3)c(=O)oc2cc1O | > 100 µM | > 100 µM | > 100 µM | > 100 µM | > 89.7 µM | > 100 µM | > 100 µM | > 100 µM | > 100 µM | > 100 µM | > 100 µM | > 92.7 µM | > 100 µM | > 35.9 µM | > 100 µM | > 94.8 µM | 
CC(N)/C(N)=N/O (stereo not drawn) | > 100 µM | > 100 µM | > 100 µM | > 100 µM | > 100 µM | > 100 µM | > 100 µM | > 100 µM | > 100 µM | > 100 µM | > 100 µM | > 100 µM | > 100 µM | > 100 µM | > 100 µM | > 100 µM | 
CC(C)(CN1CCCCC1)C(/C=C/c1ccc(Cl)cc1)=N\NC(=O)N/N=C(/C=C/c1ccc(Cl)cc1)C(C)(C)CN1CCCCC1 | 14.7 µM | 18.8 µM | 33 µM | 13.4 µM | 21.6 µM | 22.5 µM | 8.05 µM | 14.2 µM | 22.8 µM | 54.8 µM | 13.6 µM | 12.7 µM | 7.99 µM | 25.3 µM | 15 µM | 8.24 µM | 
O=C1C(Br)=C(Br)C(=O)c2ccc(=O)ccc21 | > 86.7 µM | > 90.9 µM | 50.9 µM | > 66.1 µM | > 77 µM | 37.2 µM | 7.25 µM | > 79.2 µM | > 75.1 µM | 43 µM | 48.5 µM | > 100 µM | 38.7 µM | 52 µM | 33.8 µM | 36.3 µM | 
NC(Cc1ccccc1)C(=O)NC(Cc1ccccc1)NC(=O)C(Cc1c[nH]c2ccccc12)C(=O)O (stereo not drawn) | > 100 µM | > 100 µM | > 100 µM | > 100 µM | > 100 µM | > 100 µM | > 100 µM | > 100 µM | > 100 µM | > 100 µM | > 100 µM | > 100 µM | > 100 µM | > 100 µM | > 100 µM | > 100 µM | 
O=C1c2ccccc2-n2nnnc2C2CSCN12 (stereo not drawn) | > 100 µM | > 100 µM | > 100 µM | > 100 µM | > 100 µM | > 100 µM | > 100 µM | > 100 µM | > 100 µM | > 100 µM | > 100 µM | > 100 µM | > 100 µM | > 100 µM | > 100 µM | > 100 µM | 
